Assays:
HT1080 cells = assay: Cellular assay: inhibition of 2-HG production in HT1080 cells (LC-MS, 48 hours); format: cell-based; settings: Homo sapiens, HT-1080, 2-HG in media by LC-MS
Summary of the method: (§1)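 HT1080 or U87MG cells (5000/well, DMEM + 10% FBS) seeded overnight, then exposed to compound (0.2% DMSO final) for 48 h; medium 2-HG measured by LC-MS. Viability read by CellTiter-Glo luminescence at 72 h.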

IDH1 R132H = IDH1 R132H (Homo sapiens, UniProt O75874, R132H); assay: In vitro assay for IDH1 R132H inhibitors (NADPH/aKG, resazurin detection); format: biochemical; settings: Table 4B; 0.2 μg/ml IDH1 R132H, 50 minutes at room temperature; read-out: IC50, IDH1 R132H Inhibition
Summary of the method: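 Reaction ran 50 min at room temperature in Tris pH 7.5 buffer with 150 mM NaCl, 10 mM MgCl2 and 0.03% BSA. Mix concentrations were 0.2 μg/ml mutant enzyme, 8 uM NADPH and 2 mM aKG. Detection added 30 μM resazurin, with resorufin fluorescence (Ex544/Em590) measured 5 min later.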

U87MG cells = assay: Cellular assay: inhibition of 2-HG production in U87MG cells (LC-MS, 48 hours); format: cell-based; settings: Homo sapiens, U-87 MG, 2-HG in media by LC-MS
Summary of the method: as §1

Chain of IDH1 R132H (O75874 whole entry R132H): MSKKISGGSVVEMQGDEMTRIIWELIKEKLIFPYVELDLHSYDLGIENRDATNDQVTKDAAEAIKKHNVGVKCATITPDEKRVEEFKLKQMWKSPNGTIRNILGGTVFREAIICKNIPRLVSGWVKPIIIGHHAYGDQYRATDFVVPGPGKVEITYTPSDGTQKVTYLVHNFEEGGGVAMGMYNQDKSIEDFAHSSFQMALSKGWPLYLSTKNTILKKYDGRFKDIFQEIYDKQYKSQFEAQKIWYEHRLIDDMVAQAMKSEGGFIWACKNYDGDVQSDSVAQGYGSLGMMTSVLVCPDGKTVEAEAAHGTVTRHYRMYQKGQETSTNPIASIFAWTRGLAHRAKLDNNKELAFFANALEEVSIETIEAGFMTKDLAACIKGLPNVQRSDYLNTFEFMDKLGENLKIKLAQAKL

IC50 (HT1080 cells) [nM] | IC50 (IDH1 R132H) [nM] | IC50 (U87MG cells) [nM] | Compound
1000 to 5000 | 100 to 1000 | 250 to 1000 | CC(=O)N1CCC[C@H]1C(=O)N(c1cccc(F)c1)[C@H](C(=O)NC1CCCCC1)c1ccccc1C [Compound 370]
250 to 1000 | 100 to 1000 | 250 to 1000 | Cc1ccccc1C(C(=O)NC1CCC(F)(F)CC1)N(C(=O)Cn1ccnc1C(F)(F)F)c1cccc(F)c1 (stereo not drawn) [Compound 373]
1000 to 5000 | 100 to 1000 | 1000 to 5000 | COC(=O)NCCC(=O)N(c1cccc(F)c1)C(C(=O)NC1CCCCC1)c1ccccc1C (stereo not drawn) [Compound 374]
250 to 1000 | ≤ 100 | 250 to 1000 | Cc1ccccc1C(C(=O)NC1CCC(F)(F)CC1)N(C(=O)CNc1cccnc1F)c1cccc(F)c1 (stereo not drawn) [Compound 378]
250 to 1000 | 100 to 1000 | 250 to 1000 | Cc1ccccc1C(C(=O)NC1CC(F)(F)C1)N(C(=O)CNc1ncccc1F)c1cccc(F)c1 (stereo not drawn) [Compound 379]
1000 to 5000 | 100 to 1000 | ≤ 250 | Cc1ccccc1C(C(=O)NC1CC(F)(F)C1)N(C(=O)Cn1ccnc1C)c1cccc(F)c1 (stereo not drawn) [Compound 380]
≤ 250 | ≤ 100 | ≤ 250 | Cc1ccccc1C(C(=O)NC1CC(F)(F)C1)N(C(=O)CNc1cccnc1F)c1cccc(F)c1 (stereo not drawn) [Compound 381]
1000 to 5000 | 100 to 1000 | 1000 to 5000 | Cc1cnccc1NC(=O)N(Cc1cccs1)C(C(=O)NC1CCCCC1)c1ccccc1C (stereo not drawn) [Compound 389]

Second part, the molecule before the results:

Compound | IC50 (HT1080 cells) [nM] | IC50 (IDH1 R132H) [nM] | IC50 (U87MG cells) [nM]
COC(=O)N1CCC[C@H]1C(=O)N(c1cccc(F)c1)[C@H](C(=O)NC1CCCCC1)c1ccccc1C [Compound 356] | ≤ 250 | ≤ 100 | ≤ 250
COC(=O)NCC(=O)N(c1ccccc1F)C(C(=O)NC1CCCCC1)c1ccccc1C (stereo not drawn) [Compound 357] | 250 to 1000 | 100 to 1000 | 250 to 1000
CCOC(=O)N1CCC[C@H]1C(=O)N(c1cccc(F)c1)[C@H](C(=O)NC1CCCCC1)c1ccccc1C [Compound 359] | 250 to 1000 | ≤ 100 | ≤ 250
[2H]C1([2H])C([2H])([2H])C([2H])([2H])C([2H])(NC(=O)C(c2ccccc2C)N(C(=O)CNc2ncccc2F)c2cccc(F)c2)C([2H])([2H])C1([2H])[2H] (stereo not drawn) [Compound 361] | ≤ 250 | ≤ 100 | ≤ 250
Cc1ccccc1[C@@H](C(=O)NC1CCCCC1)N(C(=O)[C@H]1CCCN1S(C)(=O)=O)c1cccc(F)c1 [Compound 363] | 1000 to 5000 | 100 to 1000 | 250 to 1000
Cc1ccccc1C(C(=O)NC1CCCCC1)N(Cc1cccs1)C(=O)Oc1ccccc1 (stereo not drawn) [Compound 387] | 1000 to 5000 | 1000 to 10000 | > 5000

Source: US20130184222A1, “[…] ACTIVE COMPOSITIONS AND THEIR METHODS OF USE” (AGIOS PHARMACEUTICALS, INC, priority 2010, published 2013)
